pEC50: −log10 of the molar value. Entries after “also recorded” stand apart in the source; their conditions may differ. Where two headings read alike, the source gives them in different places.
Assays:
[1] = Plasma protein binding (equilibrium dialysis); type: in vitro ADME; conditions: mouse plasma
Method: Plasma protein binding experiments: In brief, a 96-well equilibrium dialysis apparatus was used to determine the free fraction in plasma for each compound (HT Dialysis LLC, Gales Ferry, CT, USA). Membranes (12-14 kDa cutoff) were conditioned in deionised H2O for 60 min, followed by conditioning in 80:20 deionised H2O/EtOH for 20 min, and then rinsed in isotonic buffer before use. Female CD1 mouse plasma was removed from the freezer and allowed to thaw on the day of experiment. Thawed plasma was then centrifuged (Allegra […], Beckman Coulter, USA), spiked with test compound (10 μg g^-1), and 150 μL aliquots (n=6 replicate determinations) loaded into the 96-well equilibrium dialysis plate. Dialysis against isotonic buffer (150 μL) was carried out for 5 h in a temperature-controlled incubator at ∼37 °C (Barworld Scientific Ltd., UK) using an orbital microplate shaker at 125 rpm (Barworld Scientific). At the end of the incubation period, aliquots of plasma or buffer were transferred to micronic tubes (Micronic B.V., the Netherlands), and the composition in each tube was balanced with control fluid such that the volume of buffer to plasma is the same. Sample extraction was performed by the addition of 400 μL MeCN containing an appropriate internal standard. Samples were allowed to mix for 1 min and then centrifuged at 3000 rpm in 96-well blocks for 15 min (Allegra […], Beckman Coulter, USA). All samples were analysed by UPLC-MS/MS on a Quattro Premier XE Mass Spectrometer (Waters Corp.). The unbound fraction was determined as the ratio of the peak area in buffer to that in plasma.

[2] = In vivo pharmacokinetics in mice; parameters: species or system female NMRI mice; conditions: for Tmax: female, NMRI; for Tmax / Cmax / half-life / AUC(0-t): mouse, whole blood, blood; for AUC(0-t): read-out: AUC(0–8) (converted)
Method: In vivo pharmacokinetics in mice: Compounds 1 and 28 were dosed orally by gavage as a solution at 5 mg free base per kg or 20 mg free base per kg, respectively (dose volume: 5 or 10 mL kg^−1, dose vehicle: 5 % DMSO, 40 % PEG400, 55 % distilled H2O) to female NMRI mice (n=3). Compounds 28, 38, and 56 were dosed as a bolus solution intraperitoneally at 10 (56) or 20 (28 and 38) mg free base per kg (dose volume: 10 mL kg^−1, dose vehicle: 5 % DMSO, 40 % PEG400, 55 % sterile H2O) to female NMRI mice (n=3). Female NMRI mice were chosen, as these represent the sex and strain used for the stage-1 and stage-2 HAT efficacy models. Blood samples were taken from each mouse at 5 (i.p. only), 15 and 30 min, 1, 2, 4, 6 and 8 h post-dose and mixed with two volumes of distilled H2O. After suitable sample preparation, the concentration of each compound in blood was determined by UPLC–MS/MS using a Quattro Premier XE (Waters, USA). Pharmacokinetic parameters were derived from the mean blood concentration time curve using PKsolutions software ver. 2.0 (Summit Research Services, USA).

[3] = system: T. brucei bloodstream-stage cells; experiment: Static–cidal (SC) assay; type: cell-based, Trypanosoma brucei brucei; conditions: for pEC50: 48 h
Method: Determination of cidality against T. brucei bloodstream-stage cells was performed using a static–cidal (SC) assay as previously reported.[26] Briefly, bloodstream-form trypanosomes were seeded into 384-well plates at 4×10^5 mL^−1 (50 μL per well), followed by immediate addition of resazurin (50 μM final) to one of the plates, and all plates were incubated at 37 °C, 5 % CO2. After 4 h the t0 plate was read using a PerkinElmer Victor 3 plate reader (λex=528 nm, λem=590 nm). The second plate was processed in the same manner 20 h later, and at 44 h the last plate was processed. The minimum cidal concentration (MCC) is defined as the lowest concentration of drug that results in a decrease of resorufin signal over time. For dose–response curves from this assay either a monophasic or a biphasic equation was used, depending on which one provided the best fit. For monophasic fits, the following four-parametric equation [Eq. (1)] was used:
in which A=percent inhibition at bottom, B=percent inhibition at top, C=EC50, D=slope, x=inhibitor concentration, and y=percent inhibition. Equation (2) was used for biphasic fits:
for which A=percent inhibition at mid-plateau, B=slope, C=log[SC EC50(1)], D=log[SC EC50(2)]. Thus SC EC50(1) is the EC50 for the first phase of the curve, and SC EC50(2) is that for the second phase. Inhibition at the bottom of the curve is fixed at 0 % and at the top, 100 %.

[4] = po, 5 mg kg^−1, female NMRI mice
[5] = ip, 20 mg kg^−1, female NMRI mice
[6] = po, 20 mg kg^−1, female NMRI mice

Row | fraction unbound at 5 h, 10 μg g^−1 ([1]; female, CD1, equilibrium dialysis, read-out: PPB) | PPB ([1]; equilibrium dialysis) [% free] | time to reach Cmax ([2]; dosed orally, 20 mg kg^−1) [min] | Tmax ([2]; ip, 20 mg/kg, 20 mg kg^−1, female NMRI mice) [h] | Tmax ([2]; po, 20 mg/kg, 20 mg kg^−1, female NMRI mice) [h] | Cmax [2, 5] [ng/mL] | half-life [2, 5] [h] | AUC(0-t) [2, 5] [ng·h/mL] | Cmax [2, 6] [ng/mL] | half-life [2, 6] [h] | AUC(0-t) [2, 6] [ng·h/mL] | pEC50 ([3]; Trypanosoma brucei, static cidal EC50, first site/phase, read-out: SC EC50(1)) | pEC50 ([3]; Trypanosoma brucei, static cidal EC50, second site/phase, read-out: SC EC50(2)) | SMILES | protein binding (unbound) [1] [% unbound] | Tmax ([2]; po, 5 mg/kg, 5 mg kg^−1, female NMRI mice) [h] | Cmax [2, 4] [ng/mL] | half-life [2, 4] [h] | AUC(0-t) [2, 4] [ng·h/mL] | MCC ([3]; Trypanosoma brucei, static–cidal assay in triplicate, read-out: MCC (minimal cidal concentration)) [µM] | mode of antiparasitic effect (in words) ([3]; text and figure legend, at concentrations tested)
1 | – | – | – | – | – | – | – | – | – | – | – | – | – | CC(c1ccccc1)n1c(=O)[nH]c2ncc(-c3ccc(F)cc3)nc21 (stereo not drawn) [Compound 1] | 0.3 | ~2 | 110 | 3 | 600 | – | –
2 | 0.072 | 7.2 | 15 | 0.083 | 0.25 | 5200 | 1.2 | 3830 | 910 | 1.7 | 1150 | 7.00 | < 4.30 | O=c1[nH]c2ncc(-c3ccccc3CO)nc2n1C1CCCCC1 [Compound 28] | 7.2 | – | – | – | – | > 50 | growth-slowing or static behaviour; also recorded: growth-slowing

— paper PMC4648050, “Discovery of Inhibitors of Trypanosoma brucei by Phenotypic Screening of a Focused Protein Kinase Library” (Chemmedchem, 2015)
